In PubChem BioAssay (NCI):
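Each compound was tested at five concentrations against cells in 96-well plates for 48 hours. GI50 is the concentration that inhibits growth by half. Definition used: TGI = concentration required for complete inhibition of growth.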

What was measured:
Assay in all cases: growth of human tumour cells (NCI), 48 h
A498 renal = system: A498 renal
CAKI-1 renal = system: CAKI-1 renal
HL-60(TB) leukemia = system: HL-60(TB) leukemia
KM12 colon = system: KM12 colon
NCI-H460 lung = system: NCI-H460 lung
OVCAR-4 ovarian = system: OVCAR-4 ovarian
MALME-3M melanoma = system: MALME-3M melanoma
SF-268 CNS = system: SF-268 CNS
SF-295 CNS = system: SF-295 CNS
SNB-19 CNS = system: SNB-19 CNS

For COc1cc2c3c(n(C4CCNCC4)c(=O)c2cc1OC)-c1cc2c(cc1C3=O)OCO2, the GI50 (A498 renal) was 0.619 µM, the TGI (A498 renal) was 3.32 µM and the GI50 (CAKI-1 renal) was 0.295 µM. The TGI (CAKI-1 renal) was 1.6 µM, the GI50 (HL-60(TB) leukemia) was 0.364 µM and the TGI (HL-60(TB) leukemia) was 1.49 µM. It also gave a GI50 (KM12 colon) of 1.11 µM, a TGI (KM12 colon) of 2.53 µM and a GI50 (NCI-H460 lung) of 0.119 µM. It also gave a TGI (NCI-H460 lung) of 0.276 µM, a GI50 (OVCAR-4 ovarian) of 1.42 µM and a TGI (OVCAR-4 ovarian) of 2.95 µM.

CC1(C)N=C(N)N=C(N)N1c1cccc(OCc2cccc([N+](=O)[O-])c2)c1 gave a TGI (A498 renal) greater than 100 µM, a TGI (CAKI-1 renal) greater than 100 µM and a TGI (HL-60(TB) leukemia) of 58.2 µM. It also gave a TGI (KM12 colon) greater than 100 µM, a TGI (MALME-3M melanoma) greater than 100 µM and a TGI (NCI-H460 lung) of 51.6 µM. The TGI (OVCAR-4 ovarian) was greater than 100 µM, the TGI (SF-268 CNS) was greater than 100 µM and the TGI (SF-295 CNS) was greater than 100 µM. For the same compound, the TGI (SNB-19 CNS) was greater than 100 µM.

With Nc1nncs1 the TGI (A498 renal) was greater than 5000 µM, the TGI (CAKI-1 renal) was greater than 4630 µM and the TGI (HL-60(TB) leukemia) was greater than 5000 µM. The TGI (KM12 colon) was greater than 5000 µM, the TGI (MALME-3M melanoma) was greater than 5000 µM and the TGI (NCI-H460 lung) was 3750 µM. The TGI (OVCAR-4 ovarian) was greater than 5000 µM, the TGI (SF-268 CNS) was greater than 5000 µM and the TGI (SF-295 CNS) was greater than 5000 µM. It also gave a TGI (SNB-19 CNS) greater than 5000 µM.

O=C(O)C(Br)Cc1ccc2c(c1)OCO2 (configuration not stated) showed a TGI (A498 renal) greater than 100 µM, a TGI (CAKI-1 renal) greater than 100 µM and a TGI (HL-60(TB) leukemia) greater than 100 µM. It also gave a TGI (KM12 colon) greater than 100 µM, a TGI (MALME-3M melanoma) greater than 100 µM and a TGI (NCI-H460 lung) greater than 100 µM. The TGI (OVCAR-4 ovarian) was greater than 100 µM, the TGI (SF-268 CNS) was greater than 100 µM and the TGI (SF-295 CNS) was greater than 100 µM. It also gave a TGI (SNB-19 CNS) greater than 100 µM.

In the case of CSc1sc(=S)sc1SC, the TGI (A498 renal) is reported as greater than 100 µM, the TGI (CAKI-1 renal) is reported as greater than 100 µM and the TGI (HL-60(TB) leukemia) is reported as greater than 31.6 µM. The TGI (KM12 colon) was greater than 100 µM, the TGI (MALME-3M melanoma) was greater than 100 µM and the TGI (NCI-H460 lung) was greater than 100 µM. For the same compound, the TGI (OVCAR-4 ovarian) was greater than 100 µM, the TGI (SF-268 CNS) was greater than 100 µM and the TGI (SF-295 CNS) was greater than 100 µM. The TGI (SNB-19 CNS) was greater than 100 µM.

For COc1cc2c3c(c4cc(OC)c(OC)cc4c2cc1OC)[C@H](O)[C@@H]1CCCN1C3, the TGI (CAKI-1 renal) was 2.3 µM, the TGI (HL-60(TB) leukemia) was 3.49 µM and the TGI (KM12 colon) was 1.52 µM. For the same compound, the TGI (MALME-3M melanoma) was 6.69 µM, the TGI (NCI-H460 lung) was 0.72 µM and the TGI (OVCAR-4 ovarian) was 0.702 µM. It also gave a TGI (SF-295 CNS) of 1.64 µM and a TGI (SNB-19 CNS) greater than 100 µM.

With COc1ccc(/C=C/[N+](=O)[O-])cc1 the TGI (A498 renal) was 17.3 µM, the TGI (HL-60(TB) leukemia) was 8.82 µM and the TGI (KM12 colon) was 12 µM. It also gave a TGI (MALME-3M melanoma) of 35.3 µM, a TGI (NCI-H460 lung) of 55.3 µM and a TGI (OVCAR-4 ovarian) of 38.2 µM. It also gave a TGI (SF-268 CNS) of 8.11 µM, a TGI (SF-295 CNS) of 7.7 µM and a TGI (SNB-19 CNS) of 12.7 µM.

Work on O=C(O)CNCc1c2ccccc2[n+]([O-])c2ccccc12 yielded a TGI (A498 renal) greater than 100 µM, a TGI (CAKI-1 renal) greater than 100 µM and a TGI (HL-60(TB) leukemia) of 91.1 µM. It also gave a TGI (KM12 colon) greater than 100 µM, a TGI (MALME-3M melanoma) greater than 100 µM and a TGI (NCI-H460 lung) greater than 100 µM. It also gave a TGI (OVCAR-4 ovarian) greater than 100 µM, a TGI (SF-268 CNS) greater than 100 µM and a TGI (SF-295 CNS) greater than 100 µM. It also gave a TGI (SNB-19 CNS) greater than 100 µM.

For COC(=O)c1nc2c3c(cccc3c1C(=O)OC)Nc1ccccc1-2, the TGI (A498 renal) was greater than 100 µM, the TGI (CAKI-1 renal) was greater than 100 µM and the TGI (HL-60(TB) leukemia) was greater than 100 µM. It also gave a TGI (KM12 colon) greater than 100 µM, a TGI (MALME-3M melanoma) of 93 µM and a TGI (NCI-H460 lung) of 77.9 µM. For the same compound, the TGI (OVCAR-4 ovarian) was greater than 100 µM, the TGI (SF-268 CNS) was greater than 100 µM and the TGI (SF-295 CNS) was greater than 100 µM. For the same compound, the TGI (SNB-19 CNS) was greater than 100 µM.

In the case of COc1ccc(/C(Cl)=C(\C=O)c2ccc(Cl)c(Cl)c2)cc1OC, the TGI (A498 renal) is reported as 30.4 µM, the TGI (CAKI-1 renal) is reported as 18.8 µM and the TGI (HL-60(TB) leukemia) is reported as 6.67 µM. The TGI (MALME-3M melanoma) was 42.5 µM, the TGI (NCI-H460 lung) was 12.4 µM and the TGI (SF-268 CNS) was 18.5 µM. The TGI (SF-295 CNS) was 15.9 µM and the TGI (SNB-19 CNS) was 65.9 µM.

For C#C[C@@]1(O)[C@@H](CO)O[C@@H](n2cc(F)c3c(N)ncnc32)[C@@H]1O, the GI50 (A498 renal) was 0.725 µM, the TGI (A498 renal) was 2.27 µM and the GI50 (HL-60(TB) leukemia) was 0.436 µM. For the same compound, the TGI (HL-60(TB) leukemia) was 3.53 µM, the GI50 (KM12 colon) was 0.502 µM and the TGI (KM12 colon) was 24.9 µM. The GI50 (MALME-3M melanoma) was 0.362 µM, the TGI (MALME-3M melanoma) was 1.81 µM and the GI50 (NCI-H460 lung) was 0.231 µM. For the same compound, the TGI (NCI-H460 lung) was 10.2 µM, the GI50 (OVCAR-4 ovarian) was 1.01 µM and the TGI (OVCAR-4 ovarian) was 8.67 µM. It also gave a GI50 (SF-268 CNS) of 0.751 µM, a TGI (SF-268 CNS) of 78.3 µM and a GI50 (SF-295 CNS) of 0.653 µM. It also gave a TGI (SF-295 CNS) of 2.33 µM, a GI50 (SNB-19 CNS) of 0.524 µM and a TGI (SNB-19 CNS) of 13.7 µM.

For S=C1NN=C2C(=C3CCCC4C5CCCCC5N2C34)N1 (configuration not stated), the TGI (CAKI-1 renal) was greater than 100 µM, the TGI (HL-60(TB) leukemia) was greater than 100 µM and the TGI (KM12 colon) was greater than 100 µM. For the same compound, the TGI (MALME-3M melanoma) was greater than 100 µM, the TGI (OVCAR-4 ovarian) was greater than 100 µM and the TGI (SF-268 CNS) was greater than 100 µM. For the same compound, the TGI (SF-295 CNS) was greater than 100 µM and the TGI (SNB-19 CNS) was greater than 100 µM.

In the case of C[C@H](CCC1=NCCN1)[C@H]1CC[C@H]2[C@@H]3CC[C@@H]4C[C@H](O)CC[C@]4(C)[C@H]3CC[C@]12C, the TGI (A498 renal) is reported as 34.5 µM, the TGI (CAKI-1 renal) is reported as 20.2 µM and the TGI (KM12 colon) is reported as greater than 47.4 µM. For the same compound, the TGI (MALME-3M melanoma) was 7.76 µM, the TGI (NCI-H460 lung) was greater than 33.9 µM and the TGI (OVCAR-4 ovarian) was 29.6 µM. For the same compound, the TGI (SF-268 CNS) was 34.3 µM, the TGI (SF-295 CNS) was 10.4 µM and the TGI (SNB-19 CNS) was 36.3 µM.

O=C(O)Cc1[nH]cnc1C(=O)O gave a TGI (A498 renal) greater than 100 µM, a TGI (CAKI-1 renal) greater than 100 µM and a TGI (HL-60(TB) leukemia) greater than 100 µM. For the same compound, the TGI (KM12 colon) was greater than 100 µM, the TGI (MALME-3M melanoma) was greater than 100 µM and the TGI (NCI-H460 lung) was greater than 100 µM. The TGI (OVCAR-4 ovarian) was greater than 100 µM, the TGI (SF-268 CNS) was greater than 100 µM and the TGI (SF-295 CNS) was greater than 100 µM. The TGI (SNB-19 CNS) was greater than 100 µM.
